Source: ChEMBL document CHEMBL3407419, “Multiple binding modes of isothiocyanates that inhibit macrophage migration inhibitory factor” (Eur J Med Chem, 2015)

What was measured:
[1] = molecular target: T1, Macrophage migration inhibitory factor (Homo sapiens, UniProt P14174); assay: Inhibition of macrophage migration inhibitory factor tautomerase activity in human Jurkat T cells using L-dopachrome methyl ester as substrate incubated for 30 mins prior to substrate addition measured for 2 mins by spectrophotometric analysis; type: cell-based
T1 sequence (P14174 whole entry): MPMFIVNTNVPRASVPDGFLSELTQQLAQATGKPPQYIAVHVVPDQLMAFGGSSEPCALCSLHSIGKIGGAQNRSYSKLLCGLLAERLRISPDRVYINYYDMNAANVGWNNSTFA

[2] = molecular target: T1, Macrophage migration inhibitory factor; assay: (§1) Inhibition of human recombinant macrophage migration inhibitory factor tautomerase activity expressed in Escherichia coli DH5alpha using L-dopachrome methyl ester as substrate incubated for 5 mins prior to substrate addition measured for 2 mins by spectrophotometric analysis
[3] = molecular target: T1, Macrophage migration inhibitory factor; assay: as §1, with “24 months post determination of initial value” for “for 2 mins”
[4] = molecular target: T1, Macrophage migration inhibitory factor; assay: Inhibition of macrophage migration inhibitory factor tautomerase activity in human Jurkat T cells using L-dopachrome methyl ester as substrate incubated for 30 mins prior to substrate addition measured 24 months post determination of initial value by spectrophotometric analysis; type: cell-based

Row | IC50 [1] | IC50 [3] | IC50 [4] | Compound | IC50 [2]
1 | 10.4 µM |  |  | FC(F)(F)c1cccc(CCN=C=S)c1 | 
2 | 1.8 µM |  |  | COc1ccccc1OCCN=C=S | 
3 | 4.8 µM |  |  | CC(CN=C=S)c1ccc(O)cc1 (stereo unspecified) | 28 µM
4 | > 100 µM |  |  | Oc1ccc(C(N=C=S)c2ccc(O)cc2)cc1 | 
5 | 3.9 µM |  |  | COc1ccc(CN=C=S)cc1 | 0.7 µM
6 | 7.8 µM |  |  | Oc1cccc(CCN=C=S)c1 | 62 µM
7 | 5 µM |  |  | S=C=NCc1ccc2c(c1)OCO2 | 2.9 µM
8 | 1.4 µM |  |  | S=C=NCCCc1ccccc1 | 
9 | 1.2 µM |  |  | CCC(N=C=S)c1ccc(OC)cc1 (stereo unspecified) | 
10 | 1.5 µM | 54 µM | 11 µM | Fc1cccc(CN=C=S)c1 | 
11 | 0.54 µM | 31 µM | 9.6 µM | Fc1ccc(CN=C=S)cc1 | 
12 | 7.1 µM |  |  | FC(F)(F)c1ccc(CCN=C=S)cc1 | 40 µM
13 | 4 µM |  |  | Oc1ccc(CCN=C=S)cc1O | 29 µM
14 | 5.9 µM |  |  | FC(F)(F)c1cccc(CN=C=S)c1 | 
15 | > 100 µM |  |  | CCC(N=C=S)c1ccc(O)cc1 (stereo unspecified) | 
16 | 21 µM |  |  | CCC(N=C=S)c1ccccc1 (stereo unspecified) | 

The remaining lines, values behind:

Row | Compound | IC50 [1] | IC50 [3] | IC50 [4] | IC50 [2]
17 | OCCCCCCN=C=S | 5.1 µM |  |  | 
18 | S=C=NCCc1ccc(Cl)cc1 | 1.6 µM |  |  | 1.1 µM
19 | Oc1ccc(CCN=C=S)cc1 | 1.2 µM |  |  | 3.6 µM
20 | C=CCN=C=S [ALLYL ISOTHIOCYANATE] | 0.25 µM |  |  | 1.1 µM
21 | C[C@@H](N=C=S)c1ccccc1 | 1.1 µM |  |  | 
22 | CC(N=C=S)c1ccccc1 (stereo unspecified) [1-PHENYLETHYL ISOTHIOCYANATE] | 2.8 µM |  |  | 1 µM
23 | S=C=NCCCCCCc1ccccc1 [PHENYLHEXYL ISOTHIOCYANATE] | 4.2 µM |  |  | 
24 | S=C=NC(c1ccccc1)c1ccccc1 | > 100 µM |  |  | 
25 | N#CSCc1ccccc1 [BENZYL THIOCYANATE] | > 100 µM |  |  | 
26 | C[S+]([O-])CCCCN=C=S (stereo unspecified) [SULFORAPHANE] | 2.2 µM |  |  | 11 µM
27 | O=C=NCCc1ccccc1 [PHENETHYL ISOCYANATE] | > 100 µM |  |  | 
28 | S=C=NCCCCc1ccccc1 [PHENYLBUTYL ISOTHIOCYANATE] | 1.9 µM |  |  | 
29 | NS(=O)(=O)c1ccc(CN=C=S)cc1 | 0.5 µM |  |  | 0.75 µM
30 | S=C=Nc1ccccc1 [PHENYLISOTHIOCYANATE] | 11 µM |  |  | 
